The numbers were not newly measured in patent US20250082604A1, “COMPOSITIONS CONTAINING A HIGH CONTENT OF PROANTHOCYANIDINS AND METHODS OF PREPARATION AND USE THEREOF” (priority 2022, published 2025), which cites them from elsewhere.

This data set concerns human HepG2 cells. As to conditions: literature data (dx.doi.org/10.3390/antiox9060471).
Turning to `COc1ccc(O)c(C(C)(C)C)c1` [BHA], the “AOP1 EC50, data from the literature” value was 31.54 µg/mL.

As for `Oc1ccc(C=Cc2cc(O)cc(O)c2)cc1` [resveratrol], the “AOP1 EC50, data from the literature” value is 64.66 µg/mL.

In the case of `Cc1cc(C(C)(C)C)c(O)c(C(C)(C)C)c1` [BHT], the “AOP1 EC50, data from the literature” value was 34.25 µg/mL.

With `Cc1c(C)c2c(c(C)c1O)CCC(C)(C(=O)O)O2` (stereo not shown) [Trolox], the “AOP1 EC50, data from the literature” value was 138.50 µg/mL.
